How the values were obtained:
Female BALB/c mice = experiment: eGFP expression in the liver at 24 hours after intravenous administration of LNP formulations to mouse (ELISA); assay type: in vivo; details: LNP N/P 3:1, DMPE-PEG2000
Text: Female BALB/c mice were purchased (SPF (Beijing) Laboratory Animal Technology Co. Ltd.) and on arrival were caged in groups of 4 on corncob bedding, with normal diet and were provided tap drinking water ad libitum that was purified and autoclaved before being offered to the animal. The environment was maintained at a target temperature of […] and relative humidity of 40-80%, with a 12-hour light/dark cycle. Animals were acclimatised to the housing conditions for at least 7 days prior to any experimental procedures and were approximately 6-8 weeks of age at the start of dosing
Animals were assigned to respective groups such that the mean body weights for each treatment groups will be equal. N=4 for each treatment group.
Formulations 1, 3, 4, 5, and 6 from Example 58 were each dosed intravenously: Each mouse was removed from its cage and restrained, and then dosed with a slow IV bolus of a formulation in the lateral tail vein at a dose […] of 0.3 mg/kg.
All animals were sacrificed 24 hours after dosing and flowing blood sampling the liver for the animals dosed by the IV route and the liver and muscle at the dose site for the IM dosed animals were harvested for eGFP analysis by ELISA.
Additional LNP formulations were prepared according to the procedures described in Example 46. These formulations were tested using the same protocol as described herein. The results of eGFP expression in the liver at 24 hours after intravenous administration of the formulations were summarized in Tables 3, 4, 5 and 6 below.

[1] = mRNA encapsulation efficiency of LNP formulations (Quant-it Ribogreen assay with Triton-X100); assay type: physicochemical; details: N/P ratio 3:1, DMPE-PEG2000
Procedure: (§1) A solution of eGFP mRNA (purchased from TriLink Biotechnologies) in citrate buffer was prepared by mixing mRNA dissolved in MilliQ-water, 100 mM citrate buffer (pH 3) and MilliQ-water to give a solution of 50 mM citrate. Lipid solution in ethanol (99.5%) was prepared with four different lipid components: ionizable lipid (see Table 1); cholesterol (Sigma-Aldrich); DSPC (distearoyl phosphatidyl choline, Avanti Polar Lipids Inc); and a polymer-conjugated lipid (see Table 1). The ratio of lipids in all experiments was ionizable lipid/cholesterol/DSPC/polymer-conjugated lipid (50/38.5/10/1.5 mol %). The total concentration of lipids in all experiments was 12.5 mM.
(§2) The mRNA and lipid solutions were mixed in a NanoAssemblr (Precision Nanosystems, Vancouver, BC, Canada) microfluidic mixing system at a mixing ratio of Aq:EtOH=3:1 and a constant flow rate of 12 mL/min. The mRNA in citrate buffer solution was prepared such that, at the time of mixing the ratio between the nitrogen atoms on the ionizable lipid and phosphorus atoms (N/P ratio) on the mRNA chain was either 3:1 or 6:1 (see Table 1).
The final mRNA concentration and encapsulation efficiency percentage (% EE) was measured by Quant-it Ribogreen Assay Kit (ThermoFischer Scientific Inc.) using Triton-X100 to disrupt the LNPs. The mRNA encapsulation efficiency was determined according to the following equation: […]

[2] = LNP particle size by dynamic light scattering (Zetasizer Nano ZS); assay type: physicochemical; details: N/P ratio 3:1, DMPE-PEG2000
Procedure: as §1, §2
The first 0.2-0.35 mL and the last 0.05-0.1 mL of the LNP suspension prepared were discarded while the rest of the volume was collected as the sample fraction. The size of the mRNA lipid nanoparticles was determined by dynamic light scattering measurements using a Zetasizer Nano ZS from Malvern Instruments Ltd, giving directly the z-average particle diameter. The number-weighted particle size distributions and averages were calculated using a particle refractive index of 1.45.

| Compound | % EE ([1]; Table 6) | <d>N (nm) ([2]; Table 6) | <d>Z (nm) ([2]; Table 6) | Liver eGFP protein (ng/g tissue) (Female BALB/c mice; Table 6, 0.3 mg/kg) | further results |
| --- | --- | --- | --- | --- | --- |
| CCCCCCCCC(CCCCCCCC)OC(=O)CCCCCCCC(CCCCCCCC(=O)OCCC(C)CCCCCC)NC1CC2(COC2)C1 (stereo not drawn) [Compound 42, 1-(heptadecan-9-yl) 17-(3-methylnonyl) 9-((2-oxaspiro[3.3]heptan-6-yl)amino)heptadecanedioate] |  |  |  |  | Liver eGFP protein (ng/g tissue) (Female BALB/c mice; Table 5, 0.3 mg/kg): 1868.2 ng/g tissue; % EE ([1]; Table 5): 94%; <d>N (nm) ([2]; Table 5): 66 nm; <d>Z (nm) ([2]; Table 5): 84 nm |
| CCCCCCCCC(CCCCCCCC)OC(=O)CCCCCCCC(CCCCCCCC(=O)OCCC(C)CCCCCC)NCC1CCOCC1 (stereo not drawn) [Compound 43, 1-(heptadecan-9-yl) 17-(3-methylnonyl) 9-(((tetrahydro-2H-pyran-4-yl)methyl)amino)heptadecanedioate] |  |  |  |  | Liver eGFP protein (ng/g tissue) (Female BALB/c mice; Table 5, 0.3 mg/kg): 2590.9 ng/g tissue; % EE ([1]; Table 5): 95%; <d>N (nm) ([2]; Table 5): 62 nm; <d>Z (nm) ([2]; Table 5): 79 nm |
| CCCCCCCCC(CCCCCCCC)OC(=O)CCCCCCCC(CCCCCCCC(=O)OCCC(CC)CCCCCC)NC1CC2(COC2)C1 (stereo not drawn) [Compound 44, 1-(3-ethylnonyl) 17-(heptadecan-9-yl) 9-((2-oxaspiro[3.3]heptan-6-yl)amino)heptadecanedioate] |  |  |  |  | Liver eGFP protein (ng/g tissue) (Female BALB/c mice; Table 5, 0.3 mg/kg): 6582.0 ng/g tissue; % EE ([1]; Table 5): 97%; <d>N (nm) ([2]; Table 5): 65 nm; <d>Z (nm) ([2]; Table 5): 80 nm |
| CCCCCC(CCCCC)CCOC(=O)CCCCCC(CCCCCC(=O)OCCC(CCCCC)CCCCC)NC1CCOCC1 [Compound 45, bis(3-pentyloctyl) 7-((tetrahydro-2H-pyran-4-yl)amino)tridecanedioate] |  |  |  |  | Liver eGFP protein (ng/g tissue) (Female BALB/c mice; Table 4, 0.3 mg/kg): 9082.2 ng/g tissue; % EE ([1]; Table 4): 88%; <d>N (nm) ([2]; Table 4): 60 nm; <d>Z (nm) ([2]; Table 4): 75 nm |
| CCCCCCCCC(CCCCCCCC)OC(=O)CCCCCCCC(CCCCCCCC(=O)OC(CC)CCCC)NCC1CCOC1 (stereo not drawn) [Compound 47, 1-(heptadecan-9-yl) 17-(heptan-3-yl) 9-(((tetrahydrofuran-3-yl)methyl)amino)heptadecanedioate] | 89% | 62 nm | 82 nm | 13883.6 ng/g tissue |  |
| CCCCCCCCC(CCCCCCCC)OC(=O)CCCCCCCC(CCCCCCCC(=O)OC(C)CCCCC)NCC1CCOC1 (stereo not drawn) [Compound 48, 1-(heptadecan-9-yl) 17-(heptan-2-yl) 9-(((tetrahydrofuran-3-yl)methyl)amino)heptadecanedioate] | 90% | 60 nm | 80 nm | 14749.9 ng/g tissue |  |
| CCCCCC(CCCCC)CCOC(=O)CCCCCCCCCC(CCCCC(=O)OCCC(CCCCC)CCCCC)NC1CC2(COC2)C1 (stereo not drawn) [Compound 49, bis(3-pentyloctyl) 6-((2-oxaspiro[3.3]heptan-6-yl)amino)hexadecanedioate] | 94% | 55 nm | 72 nm | 3934.6 ng/g tissue |  |
| CCCCCCCCC(CCCCCCCC)OC(=O)CCCCCCCC(CCCCCCCC(=O)OCC1CC1CCCCCC)NCC1COC1 (stereo not drawn) [Compound 51, 1-(heptadecan-9-yl) 17-((2-hexylcyclopropyl)methyl) 9-((oxetan-3-ylmethyl)amino)heptadecanedioate] | 95% | 53 nm | 67 nm | 3473.8 ng/g tissue |  |
| CCCCCCCCC(CCCCCCCC)OC(=O)CCCCCCCC(CCCCCCCC(=O)OCC1CC1CCCCCC)NCC1CCOC1 (stereo not drawn) [Compound 52, 1-(heptadecan-9-yl) 17-((2-hexylcyclopropyl)methyl) 9-(((tetrahydrofuran-3-yl)methyl)amino)heptadecanedioate] | 95% | 55 nm | 71 nm | 4701.7 ng/g tissue |  |

Further lines, with some results ahead:

| % EE ([1]; Table 6) | <d>N (nm) ([2]; Table 6) | <d>Z (nm) ([2]; Table 6) | Compound | Liver eGFP protein (ng/g tissue) (Female BALB/c mice; Table 6, 0.3 mg/kg) | further results |
| --- | --- | --- | --- | --- | --- |
| 93% | 54 nm | 73 nm | CCCCCCCCC(CCCCCCCC)OC(=O)CCCCCCCC(CCCCCCCC(=O)OC(CC)CCCCC)NC1CC2(COC2)C1 (stereo not drawn) [Compound 46, 1-(heptadecan-9-yl) 17-(octan-3-yl) 9-((2-oxaspiro[3.3]heptan-6-yl)amino)heptadecanedioate] | 15932.1 ng/g tissue |  |
| 97% | 51 nm | 65 nm | CCCCCCCCC(CCC)OC(=O)CCCCCCCC(CCCCCCCC(=O)OC(CCCCCCCC)CCCCCCCC)NC1CC2(COC2)C1 (stereo not drawn) [Compound 50, 1-(dodecan-4-yl) 17-(heptadecan-9-yl) 9-((2-oxaspiro[3.3]heptan-6-yl)amino)heptadecanedioate] | 7410.4 ng/g tissue |  |
| 96% | 50 nm | 65 nm | CCCCCCCCC(CCCCCCCC)OC(=O)CCCCCCCC(CCCCCCCC(=O)OC(C)(C)CCCCCCCC)NC1CC2(COC2)C1 (stereo not drawn) [Compound 53, 1-(heptadecan-9-yl) 17-(2-methyldecan-2-yl) 9-((2-oxaspiro[3.3]heptan-6-yl)amino)heptadecanedioate] | 6947.2 ng/g tissue |  |
| 95% | 62 nm | 81 nm | CCCCCCCCCC(=O)OCCCCCCCC(CCCCCCCC(=O)OC(CCCCCCCC)CCCCCCCC)NC1CC2(COC2)C1 (stereo not drawn) [Compound 54, Heptadecan-9-yl 9-((2-oxaspiro[3.3]heptan-6-yl)amino)-16-(decanoyloxy)hexadecanoate] | 10704.5 ng/g tissue |  |
| 93% | 62 nm | 77 nm | CCCCCCCCC(CCCCCCCC)OC(=O)CCCCCCCC(CCCCCCCCCC(=O)OC(C)CCCCCC)NC1CC2(COC2)C1 (stereo not drawn) [Compound 55, 1-(heptadecan-9-yl) 19-(octan-2-yl) 9-((2-oxaspiro[3.3]heptan-6-yl)amino)nonadecanedioate] | 18695.5 ng/g tissue |  |
| 96% | 58 nm | 73 nm | CCCCCCCCCCC(C)OC(=O)CCCCCC(CCCCCCCC(=O)OC(CCCCCCCC)CCCCCCCC)NC1CC2(COC2)C1 (stereo not drawn) [Compound 56, 1-(dodecan-2-yl) 15-(heptadecan-9-yl) 7-((2-oxaspiro[3.3]heptan-6-yl)amino)pentadecanedioate] | 10270.4 ng/g tissue |  |
